This assay has as its system MV-4-11 cells. Nature of the assay: Gene expression microarray analysis (Affymetrix PrimeView) and GSEA. The assay is classed as cell-based, human. Details: RFU PODN (11730768_x_at) / Fold change /veh PODN (11730768_x_at) / RFU LINC00158 (11744669_a_at) / Fold change /veh LINC00158 (11744669_a_at) / RFU DUSP10 (11751237_a_at) / Fold change /veh DUSP10 (11751237_a_at) / RFU ID3 (11757404_x_at) / Fold change /veh ID3 (11757404_x_at) / RFU PLEKHG5 (11737974_s_at) / Fold change /veh PLEKHG5 (11737974_s_at) / RFU LRRC4B (11730491_at) / Fold change /veh LRRC4B (11730491_at) / RFU GIMAP4 (11747438_a_at) / Fold change /veh GIMAP4 (11747438_a_at) / RFU KRT8 (11758183_x_at) / Fold change /veh KRT8 (11758183_x_at) / RFU CNN1 (11734310_a_at) / Fold change /veh CNN1 (11734310_a_at) / RFU VPS37D (11726825_at) / Fold change /veh VPS37D (11726825_at) / RFU C10orf10 (11716522_x_at) / Fold change /veh C10orf10 (11716522_x_at) / RFU KIR2DL2 /// KIR2DL4 /// KIR2DL5A /// KIR2DL5B /// KIR2DS1 /// KIR2DS2 /// KIR2DS3 /// KIR2DS4 /// KIR3DL3 /// KIR3DL3 /// KIR3DS1 (11738374_at) / Fold change /veh KIR2DL2 /// KIR2DL4 /// KIR2DL5A /// KIR2DL5B /// KIR2DS1 /// KIR2DS2 /// KIR2DS3 /// KIR2DS4 /// KIR3DL3 /// KIR3DL3 /// KIR3DS1 (11738374_at) / RFU C1QL1 (11718748_at) / Fold change /veh C1QL1 (11718748_at) / RFU TMPRSS4 (11747572_a_at) / Fold change /veh TMPRSS4 (11747572_a_at) / RFU HAMP (11756126_x_at) / Fold change /veh HAMP (11756126_x_at) / RFU RNFT2 (11725882_a_at) / Fold change /veh RNFT2 (11725882_a_at) / RFU NR4A2 (11747474_a_at) / Fold change /veh NR4A2 (11747474_a_at) / RFU ABCC12 (11746883_a_at) / Fold change /veh ABCC12 (11746883_a_at) / RFU TMEM136 (11760407_x_at) / Fold change /veh TMEM136 (11760407_x_at) / RFU CLDN22 /// WWC2 (11732394_at) / Fold change /veh CLDN22 /// WWC2 (11732394_at) / RFU HLA-DPB1 (11760878_x_at) / Fold change /veh HLA-DPB1 (11760878_x_at) / RFU SPINT1 (11716480_a_at) / Fold change /veh SPINT1 (11716480_a_at) / RFU GAP43 (11754022_s_at) / Fold change /veh GAP43 (11754022_s_at) / RFU A4GNT (11735810_at) / Fold change /veh A4GNT (11735810_at) / RFU PRB3 (11715151_x_at) / Fold change /veh PRB3 (11715151_x_at) / RFU TUBB4B (11761932_at) / Fold change /veh TUBB4B (11761932_at) / RFU CAPN14 (11732068_a_at) / Fold change /veh CAPN14 (11732068_a_at) / RFU TMCC2 (11721928_a_at) / Fold change /veh TMCC2 (11721928_a_at) / RFU IRGQ (11745062_a_at) / Fold change /veh IRGQ (11745062_a_at) / RFU FAM174B (11720279_a_at) / Fold change /veh FAM174B (11720279_a_at) / RFU TMPRSS4 (11748680_a_at) / Fold change /veh TMPRSS4 (11748680_a_at) / RFU FAM212B (11763350_a_at) / Fold change /veh FAM212B (11763350_a_at) / RFU PLEKHG5 (11743358_a_at) / Fold change /veh PLEKHG5 (11743358_a_at) / RFU ZSCAN30 (11745921_a_at) / Fold change /veh ZSCAN30 (11745921_a_at) / RFU CMKLR1 (11741424_a_at) / Fold change /veh CMKLR1 (11741424_a_at) / RFU LOC101060620 /// MAPK8IP1 (11723275_at) / Fold change /veh LOC101060620 /// MAPK8IP1 (11723275_at) / RFU SPTSSB (11747773_x_at) / Fold change /veh SPTSSB (11747773_x_at) / RFU PRSS12 (11739890_at) / Fold change /veh PRSS12 (11739890_at) / RFU BIN1 (11741810_x_at) / Fold change /veh BIN1 (11741810_x_at) / RFU WNT11 (11732464_a_at) / Fold change /veh WNT11 (11732464_a_at) / RFU C10orf10 (11716521_a_at) / Fold change /veh C10orf10 (11716521_a_at) / RFU C5orf56 (11738089_at) / Fold change /veh C5orf56 (11738089_at) / RFU CYB561 (11721691_x_at) / Fold change /veh CYB561 (11721691_x_at) / RFU ANKRD19P (11752326_a_at) / Fold change /veh ANKRD19P (11752326_a_at) / RFU OR2T12 /// OR2T33 /// OR2T8 (11738714_s_at) / Fold change /veh OR2T12 /// OR2T33 /// OR2T8 (11738714_s_at) / RFU VCAN (11748164_a_at) / Fold change /veh VCAN (11748164_a_at) / RFU JSRP1 (11732532_at) / Fold change /veh JSRP1 (11732532_at) / RFU KRTAP10-11 (11738290_x_at) / Fold change /veh KRTAP10-11 (11738290_x_at) / RFU MYO3A (11730013_a_at) / Fold change /veh MYO3A (11730013_a_at) / RFU EBF3 (11725865_a_at) / Fold change /veh EBF3 (11725865_a_at) / RFU CAMK2N1 (11719241_x_at) / Fold change /veh CAMK2N1 (11719241_x_at) / RFU C5orf56 (11738088_a_at) / Fold change /veh C5orf56 (11738088_a_at) / RFU OLFML3 (11715873_a_at) / Fold change /veh OLFML3 (11715873_a_at) / RFU LOC100653217 /// NTM (11731650_a_at) / Fold change /veh LOC100653217 /// NTM (11731650_a_at) / RFU MAPK11 (11762145_a_at) / Fold change /veh MAPK11 (11762145_a_at) / RFU FIZ1 (11724087_x_at) / Fold change /veh FIZ1 (11724087_x_at) / RFU OASL (11726364_x_at) / Fold change /veh OASL (11726364_x_at) / RFU SOX15 (11748057_x_at) / Fold change /veh SOX15 (11748057_x_at) / RFU CD79A (11719716_a_at) / Fold change /veh CD79A (11719716_a_at) / RFU HIST1H1D (11736915_at) / Fold change /veh HIST1H1D (11736915_at) / RFU CASKIN2 (11723855_a_at) / Fold change /veh CASKIN2 (11723855_a_at) / RFU LOC730098 (11760151_x_at) / Fold change /veh LOC730098 (11760151_x_at) / RFU OR4N2 (11742367_at) / Fold change /veh OR4N2 (11742367_at) / RFU PRRT2 (11749266_a_at) / Fold change /veh PRRT2 (11749266_a_at) / RFU SNX32 (11753110_a_at) / Fold change /veh SNX32 (11753110_a_at) / RFU CDHR5 (11726645_a_at) / Fold change /veh CDHR5 (11726645_a_at) / RFU RCAN1 (11760418_a_at) / Fold change /veh RCAN1 (11760418_a_at) / RFU FAM167A (11723789_a_at) / Fold change /veh FAM167A (11723789_a_at) / RFU FAM26E (11764081_at) / Fold change /veh FAM26E (11764081_at) / RFU ISYNA1 (11749810_s_at) / Fold change /veh ISYNA1 (11749810_s_at) / RFU ACY1 (11761880_at) / Fold change /veh ACY1 (11761880_at) / RFU 11764098_at / Fold change /veh 11764098_at / RFU SAMD14 (11745864_x_at) / Fold change /veh SAMD14 (11745864_x_at) / RFU NPB (11741838_a_at) / Fold change /veh NPB (11741838_a_at) / RFU TMPRSS6 (11731388_a_at) / Fold change /veh TMPRSS6 (11731388_a_at) / RFU KRTAP10-2 (11738614_at) / Fold change /veh KRTAP10-2 (11738614_at) / RFU ARHGAP8 /// PRR5-ARHGAP8 (11727945_x_at) / Fold change /veh ARHGAP8 /// PRR5-ARHGAP8 (11727945_x_at) / RFU KRTAP5-7 /// NADSYN1 (11734609_at) / Fold change /veh KRTAP5-7 /// NADSYN1 (11734609_at) / RFU RASL12 (11751679_a_at) / Fold change /veh RASL12 (11751679_a_at) / RFU CDKN2B (11736163_a_at) / Fold change /veh CDKN2B (11736163_a_at) / RFU PRF1 (11729649_at) / Fold change /veh PRF1 (11729649_at) / RFU, ZNF638 /// ZNF638-IT1 / Fold change vs veh, ZNF638 /// ZNF638-IT1 / RFU, PANK3 / Fold change vs veh, PANK3 / RFU, SH3YL1 / Fold change vs veh, SH3YL1 / RFU, ZEB2 / Fold change vs veh, ZEB2 / RFU, NRIP1 / Fold change vs veh, NRIP1 / RFU, PTTG1IP / Fold change vs veh, PTTG1IP / RFU, CAPN2 / Fold change vs veh, CAPN2 / RFU, MED14 / Fold change vs veh, MED14 / RFU, SNORA58 / Fold change vs veh, SNORA58 / RFU, C1orf63 / Fold change vs veh, C1orf63 / RFU, LRRFIP1 / Fold change vs veh, LRRFIP1 / RFU, NDUFAF7 / Fold change vs veh, NDUFAF7 / RFU, SLC12A2 / Fold change vs veh, SLC12A2 / RFU, IBTK / Fold change vs veh, IBTK / RFU, ESF1 / Fold change vs veh, ESF1 / Fold change vs veh, TMEM50B / RFU, TAOK1 / Fold change vs veh, TAOK1 / RFU, ACBD3 / Fold change vs veh, ACBD3 / RFU, TMA16 / Fold change vs veh, TMA16 / RFU, RWDD3 / Fold change vs veh, RWDD3 / RFU, BCAT1 / Fold change vs veh, BCAT1 / RFU, EDEM3 / Fold change vs veh, EDEM3 / RFU, TMEM33 / Fold change vs veh, TMEM33 / RFU, WDR75 / Fold change vs veh, WDR75 / RFU, AHCTF1 / Fold change vs veh, AHCTF1 / RFU, TFRC / Fold change vs veh, TFRC / RFU, ZDHHC17 / Fold change vs veh, ZDHHC17 / RFU, NOM1 / Fold change vs veh, NOM1 / RFU, ARL8B / Fold change vs veh, ARL8B / RFU, ZBTB11 / Fold change vs veh, ZBTB11 / RFU, TAMM41 / Fold change vs veh, TAMM41 / RFU, KIAA1704 /// LOC100996395 / Fold change vs veh, KIAA1704 /// LOC100996395 / RFU, ING1 / Fold change vs veh, ING1 / RFU, TRMT61B / Fold change vs veh, TRMT61B / RFU, FUBP3 / Fold change vs veh, FUBP3 / RFU, TP53 / Fold change vs veh, TP53 / RFU, TNKS2 / Fold change vs veh, TNKS2 / RFU, ZFP14 / Fold change vs veh, ZFP14 / RFU, ACTR2 / Fold change vs veh, ACTR2 / RFU, PPP3R1 / Fold change vs veh, PPP3R1 / RFU, PIK3R1 / Fold change vs veh, PIK3R1 / RFU, HNRNPA1 / Fold change vs veh, HNRNPA1 / RFU, RNF170 / Fold change vs veh, RNF170 / RFU, ZNF28 / Fold change vs veh, ZNF28 / RFU, RNGTT / Fold change vs veh, RNGTT / RFU, OGT / Fold change vs veh, OGT / RFU, BRD1 / Fold change vs veh, BRD1 / RFU, MARS / Fold change vs veh, MARS / RFU, ZNF655 / Fold change vs veh, ZNF655 / RFU, FAHD1 / Fold change vs veh, FAHD1 / RFU, BDP1 / Fold change vs veh, BDP1 / RFU, LRRCC1 / Fold change vs veh, LRRCC1 / RFU, ARID1A / Fold change vs veh, ARID1A / RFU, ZNF146 / Fold change vs veh, ZNF146 / RFU, ZNF330 / Fold change vs veh, ZNF330 / RFU, GPN3 / Fold change vs veh, GPN3 / RFU, C9orf123 / Fold change vs veh, C9orf123 / RFU, N4BP2L2 / Fold change vs veh, N4BP2L2 / RFU, ARFIP1 / Fold change vs veh, ARFIP1 / RFU, FAM179B / Fold change vs veh, FAM179B / RFU, BCL10 / Fold change vs veh, BCL10 / RFU, UHRF1BP1L / Fold change vs veh, UHRF1BP1L / RFU, BET1 / Fold change vs veh, BET1 / RFU, CNOT2 / Fold change vs veh, CNOT2 / RFU, ZNF268 / Fold change vs veh, ZNF268 / Fold change vs veh, ZNF507 / RFU, DGCR2 / Fold change vs veh, DGCR2 / RFU, WDSUB1 / Fold change vs veh, WDSUB1 / Fold change vs veh, HSP90B1 /// MIR3652 / RFU, ADSS / Fold change vs veh, ADSS / RFU, GK / Fold change vs veh, GK / RFU, ZNF148 / Fold change vs veh, ZNF148 / RFU, TAF9 / Fold change vs veh, TAF9 / RFU, SLC1A5 / Fold change vs veh, SLC1A5 / RFU, SLMO2 / Fold change vs veh, SLMO2 / RFU, ABCC4 / Fold change vs veh, ABCC4 / RFU, LOC101060439 /// RAP1B / Fold change vs veh, LOC101060439 /// RAP1B / RFU, RFX7 / Fold change vs veh, RFX7 / RFU, GTPBP10 / Fold change vs veh, GTPBP10 / RFU, CNEP1R1 / Fold change vs veh, CNEP1R1 / RFU, BIVM-ERCC5 /// ERCC5 / Fold change vs veh, BIVM-ERCC5 /// ERCC5 / RFU, ILF3 / Fold change vs veh, ILF3 / RFU 11762660_at / Fold change /veh 11762660_at / RFU VCAN (11757783_s_at) / Fold change /veh VCAN (11757783_s_at) / RFU DDX43 (11728927_at) / Fold change /veh DDX43 (11728927_at) / RFU KRT8 (11758188_x_at) / Fold change /veh KRT8 (11758188_x_at) / RFU NKD1 (11759106_at) / Fold change /veh NKD1 (11759106_at) / RFU SRD5A1 (11742802_a_at) / Fold change /veh SRD5A1 (11742802_a_at) / RFU TPSAB1 /// TPSB2 (11721975_s_at) / Fold change /veh TPSAB1 /// TPSB2 (11721975_s_at) / RFU GSTM3 (11746129_a_at) / Fold change /veh GSTM3 (11746129_a_at) / RFU IL23R (11737362_x_at) / Fold change /veh IL23R (11737362_x_at) / RFU TMEM51 (11727254_a_at) / Fold change /veh TMEM51 (11727254_a_at) / RFU PIWIL2 (11732686_x_at) / Fold change /veh PIWIL2 (11732686_x_at) / RFU ORM1 (11744905_x_at) / Fold change /veh ORM1 (11744905_x_at) / RFU CCDC152 (11743942_at) / Fold change /veh CCDC152 (11743942_at) / RFU ECM1 (11717891_a_at) / Fold change /veh ECM1 (11717891_a_at) / RFU IL23R (11748794_a_at) / Fold change /veh IL23R (11748794_a_at) / RFU TNFAIP8L3 (11732012_x_at) / Fold change /veh TNFAIP8L3 (11732012_x_at) / RFU MBOAT4 (11741988_at) / Fold change /veh MBOAT4 (11741988_at) / RFU 11764193_at / Fold change /veh 11764193_at / RFU TMEM53 (11763286_at) / Fold change /veh TMEM53 (11763286_at) / RFU MAGEB2 (11727129_at) / Fold change /veh MAGEB2 (11727129_at) / RFU TMEM200A (11744735_a_at) / Fold change /veh TMEM200A (11744735_a_at) / RFU CCDC152 (11751479_a_at) / Fold change /veh CCDC152 (11751479_a_at) / RFU FAM211A (11726209_a_at) / Fold change /veh FAM211A (11726209_a_at) / RFU RGS16 (11746705_a_at) / Fold change /veh RGS16 (11746705_a_at) / RFU VCAN (11755009_s_at) / Fold change /veh VCAN (11755009_s_at) / RFU RHOB (11743442_s_at) / Fold change /veh RHOB (11743442_s_at) / RFU RGS16 (11720943_a_at) / Fold change /veh RGS16 (11720943_a_at) / RFU RGS16 (11720944_at) / Fold change /veh RGS16 (11720944_at) / RFU, VPS4B / Fold change vs veh, VPS4B / RFU, CREB1 / Fold change vs veh, CREB1 / RFU, DNAJC13 / Fold change vs veh, DNAJC13 / RFU, GNAQ / Fold change vs veh, GNAQ / RFU, CDK5R1 / Fold change vs veh, CDK5R1 / RFU, ZRANB3 / Fold change vs veh, ZRANB3 / RFU, CUL4A / Fold change vs veh, CUL4A / RFU, CCNY / Fold change vs veh, CCNY / RFU, UFL1 / Fold change vs veh, UFL1 / RFU, COG3 / Fold change vs veh, COG3 / RFU, DIAPH2 / Fold change vs veh, DIAPH2 / RFU, SKA2 / Fold change vs veh, SKA2 / RFU, AFF3 / Fold change vs veh, AFF3 / RFU, LMF1 / Fold change vs veh, LMF1 / RFU, IPO11 / Fold change vs veh, IPO11 / RFU, DFFB / Fold change vs veh, DFFB / RFU, FOXP1 / Fold change vs veh, FOXP1 / RFU, CARD8 / Fold change vs veh, CARD8 / RFU, STRN3 / Fold change vs veh, STRN3 / RFU, ADK / Fold change vs veh, ADK / RFU, RASSF2 / Fold change vs veh, RASSF2 / RFU, WIPF1 / Fold change vs veh, WIPF1 / RFU, LARP1B / Fold change vs veh, LARP1B / RFU, RASA1 / Fold change vs veh, RASA1 / RFU, RB1 / Fold change vs veh, RB1 / RFU, PPFIA1 / Fold change vs veh, PPFIA1 / RFU, MAT2A / Fold change vs veh, MAT2A / RFU, CCT5 / Fold change vs veh, CCT5 / RFU, WDR92 / Fold change vs veh, WDR92 / RFU, CUX1 / Fold change vs veh, CUX1 / RFU, TTC7A / Fold change vs veh, TTC7A / RFU, TMEM135 / Fold change vs veh, TMEM135 / RFU, DEPTOR / Fold change vs veh, DEPTOR / RFU, CPM / Fold change vs veh, CPM / RFU, DNAJB6 / Fold change vs veh, DNAJB6 / RFU, CACNA2D3 / Fold change vs veh, CACNA2D3 / RFU, DTX4 / Fold change vs veh, DTX4 / RFU, TFCP2 / Fold change vs veh, TFCP2 / RFU, GMCL1 /// GMCL1P1 / Fold change vs veh, GMCL1 /// GMCL1P1 / RFU, AEBP2 / Fold change vs veh, AEBP2 / RFU, SNHG1 /// SNORD22 /// SNORD25 /// SNORD26 /// SNORD27 /// SNORD28 /// SNORD29 /// SNORD31 / Fold change vs veh, SNHG1 /// SNORD22 /// SNORD25 /// SNORD26 /// SNORD27 /// SNORD28 /// SNORD29 /// SNORD31 / Fold change (Aza/veh), C12orf56 (ProbeSet 11735607_a_at) / Fold change (ACY-1035/veh), C12orf56 (ProbeSet 11735607_a_at) / Fold change (Aza/veh), FGFR1OP (ProbeSet 11751329_s_at) / Fold change (ACY-1035/veh), FGFR1OP (ProbeSet 11751329_s_at) / Fold change (Aza/veh), VPS36 (ProbeSet 11739960_a_at) / Fold change (ACY-1035/veh), VPS36 (ProbeSet 11739960_a_at) / RFU SYPL1 (11715823_x_at) / Fold change /veh SYPL1 (11715823_x_at) / RFU IGFBP7 (11715501_s_at) / Fold change /veh IGFBP7 (11715501_s_at) / RFU REEP3 (11722064_at) / Fold change /veh REEP3 (11722064_at) / RFU IGLL1 (11728026_x_at) / Fold change /veh IGLL1 (11728026_x_at): dose or concentration left out as unconfirmed. The conditions noted are these: MV-4-11 cells, 48 hours.

As for `Nc1ncn([C@@H]2O[C@H](CO)[C@@H](O)[C@H]2O)c(=O)n1` [azacitidine], the “RFU ID3 (11757404_x_at)” value is on record as 51.53 RFU.

The values are drawn from article PMC5218480 (PLoS ONE, 2017).
